Holding throughout (experiment): Kinase activity inhibition assay (HTRF TK Kit), selectivity
Holding throughout (type): biochemical
On the technique in general: TR-FRET usually uses a lanthanide donor and a delayed reading to cut background.

One experiment deals with T1, EGFR (Homo sapiens, UniProt P00533).
T1 construct: purchased Carna 08-115
From the text:
(§1) In this assay, the HTRF TK Kit (Catalog No. 62TK0PEC) provided by Cisbio was used to detect the inhibitory activity of compounds on BTK kinase, BTK T474I kinase and BTK C481 S kinase and the selectivity of compounds relative to EGFR, ITK and TEC kinases.
(§2) Reagents and consumables: BTK kinase (Invitrogen, Catalog No. PV3587), BTK C481S (Carna, Product No. 08-547), BTK T474I(SignalChem Product No. B10-12HH), ITK (Cama, Product No. 08-181), EGFR (Cama, Product No. 08-115), TEC (Carna, Product No. 08-182), HTRF-TK kit (Cisbio, Product No. 62TK0PEC), MgCl2 (Sigma, Product No. M1028), MnCl2 (Sigma, Product No. M1787), DTT (Sigma, Product No. D0632), ATP (Sigma, Product No. A7699-1g), DMSO (Sigma, Product No. D2650), 384-well plate (PE, Product No. 6008280).
(§3) The entire operation steps were carried out on ice, and the total reaction volume was 10µL. A compound (4µL), substrate and ATP (4µL), and kinase (2µL) were added in sequence to a 384-well plate, and the plate was shaken for 30 seconds. The mixture was reacted at room temperature for an appropriate time, and then the detection reagent was added. The resulting mixture was reacted at room temperature for 1 hour, and then the plate was assayed with a microplate reader. The specific steps were as follows: • a) a 1 × kinase buffer solution required for the kinase assay was calculated according to the amount of the test compound, and prepared as needed; • b) 2.5 × working concentration of a compound was prepared, 100-fold gradient concentration solutions of a compound were diluted by 40 × to the desired concentration, respectively, mixed well, and added to each well at 4 µL per well; • c) 5 × working concentration of the substrate and ATP were prepared, mixed in a ratio of 1:1 before being added to the 384-well plate, and added to each well at 4 µL per well; • d) 5 × working concentration of a kinase was prepared, 2 µL of which was added to each well; • e) the plate was shaken on a microplate shaker for 30 seconds, sealed with a sealing membrane, and the mixture was reacted at room temperature for an appropriate time; • f) 4 × working concentration of streptavidin XL-665 and TK antibody-cryptate compound were prepared, mixed in a ratio of 1:1 before being added to the 384-well plate, and added to each well at 10 µL per well; • g) the mixture was reacted at room temperature for 1 hour, and then the plate was read; • h) the wells with only substrate, ATP and 1% DMSO added but no kinase were blank control wells, and the wells with only substrate, ATP, 1% DMSO and kinase were positive control wells.
(§4) Readings: The values of 620 nm (cryptate) and 665 nm (XL665) were read with a BioTek Synerg Neo2 microplate reader, the ratio of 665/620 for each well was calculated, and the data were exported.
(§5) Data analysis: IC50 was calculated using GraphPad Prism 7.0 software.
(§6) The IC50 (half-maximal inhibitory concentration) of the compound was obtained using the following nonlinear fitting formula: Y = Bottom + (Top−Bottom)/(1+10^(∧)((LogIC50−X)*HillSlope)) [formula] • X: Log value of the compound concentration • Y: Inhibition rate (% inhibition) • Top: Maximum response • Bottom: Baseline response • HillSlope: Slope of the curve
(§7) The formula for calculating kinase inhibition rate (inhibition rate %) was: [formula]

The next experiment has as its target T2, ITK (Homo sapiens, UniProt Q08881).
T2 construct: purchased Carna 08-181
T2 sequence (Q08881 1-620): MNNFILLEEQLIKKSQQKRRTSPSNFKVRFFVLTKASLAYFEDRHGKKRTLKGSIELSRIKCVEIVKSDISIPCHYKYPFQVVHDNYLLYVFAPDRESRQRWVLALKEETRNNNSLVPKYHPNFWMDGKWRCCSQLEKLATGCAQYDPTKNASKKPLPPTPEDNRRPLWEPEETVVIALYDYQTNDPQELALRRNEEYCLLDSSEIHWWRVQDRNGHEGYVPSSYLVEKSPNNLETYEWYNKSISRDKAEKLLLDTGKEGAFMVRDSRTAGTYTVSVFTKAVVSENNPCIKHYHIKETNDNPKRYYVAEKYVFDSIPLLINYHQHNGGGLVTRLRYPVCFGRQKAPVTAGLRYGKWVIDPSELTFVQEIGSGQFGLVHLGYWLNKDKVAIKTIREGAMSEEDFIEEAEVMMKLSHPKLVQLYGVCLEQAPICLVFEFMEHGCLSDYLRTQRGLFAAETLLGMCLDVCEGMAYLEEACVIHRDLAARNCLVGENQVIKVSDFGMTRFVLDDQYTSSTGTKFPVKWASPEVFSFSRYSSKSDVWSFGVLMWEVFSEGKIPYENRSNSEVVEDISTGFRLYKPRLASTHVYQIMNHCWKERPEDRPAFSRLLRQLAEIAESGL
Description: as §1, §2, §3, §4, §5, §6, §7

A further experiment addresses T3, TEC (Homo sapiens, UniProt P42680).
T3 construct: purchased Carna 08-182
T3 sequence (P42680 1-631): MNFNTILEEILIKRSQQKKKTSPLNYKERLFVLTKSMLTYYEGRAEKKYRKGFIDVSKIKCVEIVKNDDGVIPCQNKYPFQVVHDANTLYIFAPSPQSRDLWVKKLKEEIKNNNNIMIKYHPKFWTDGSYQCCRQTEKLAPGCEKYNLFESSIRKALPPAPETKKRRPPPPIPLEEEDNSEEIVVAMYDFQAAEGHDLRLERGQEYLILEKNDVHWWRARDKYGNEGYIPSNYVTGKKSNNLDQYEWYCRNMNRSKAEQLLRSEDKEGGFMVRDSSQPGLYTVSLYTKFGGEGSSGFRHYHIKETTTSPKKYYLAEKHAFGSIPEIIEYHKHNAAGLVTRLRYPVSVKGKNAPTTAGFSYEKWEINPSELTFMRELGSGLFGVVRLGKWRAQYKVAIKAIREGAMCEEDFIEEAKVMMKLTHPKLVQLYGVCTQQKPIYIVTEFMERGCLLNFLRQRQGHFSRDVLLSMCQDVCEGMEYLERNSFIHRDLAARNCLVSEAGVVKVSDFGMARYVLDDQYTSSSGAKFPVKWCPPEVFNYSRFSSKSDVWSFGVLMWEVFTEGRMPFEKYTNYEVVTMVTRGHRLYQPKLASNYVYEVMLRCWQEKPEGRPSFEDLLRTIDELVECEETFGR
Description: as §1, §2, §3, §4, §5, §6, §7

Structures are written as SMILES.

T1 sequence (P00533 669-1210 limits assumed): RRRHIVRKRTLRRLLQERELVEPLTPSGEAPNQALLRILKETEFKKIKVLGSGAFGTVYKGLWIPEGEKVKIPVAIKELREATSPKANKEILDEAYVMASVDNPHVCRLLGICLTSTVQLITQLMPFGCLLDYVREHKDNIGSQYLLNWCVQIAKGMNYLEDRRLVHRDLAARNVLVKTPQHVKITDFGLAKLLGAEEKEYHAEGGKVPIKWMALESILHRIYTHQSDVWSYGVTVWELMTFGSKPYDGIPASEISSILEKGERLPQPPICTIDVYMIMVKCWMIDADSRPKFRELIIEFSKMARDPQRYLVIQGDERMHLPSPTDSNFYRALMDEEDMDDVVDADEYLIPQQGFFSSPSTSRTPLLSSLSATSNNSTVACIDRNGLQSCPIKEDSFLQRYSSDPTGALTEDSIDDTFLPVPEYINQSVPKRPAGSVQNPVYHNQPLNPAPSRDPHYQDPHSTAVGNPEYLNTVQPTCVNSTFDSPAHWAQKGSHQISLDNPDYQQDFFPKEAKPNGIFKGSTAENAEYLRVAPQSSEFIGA

`COc1ccc(F)cc1C(=O)NCc1ccc(-c2ncc(-c3ccncn3)c3[nH]nc(N)c23)cc1` [Example 19]: the IC50 was more than 500 nM on EGFR, more than 500 nM at ITK and 50 to 500 nM at TEC.

On to `COc1ccc(F)cc1C(=O)NCc1ccc(-c2ncc(-c3ccc(F)cn3)c3[nH]nc(N)c23)cc1` [Example 21, N-(4-(3-amino-7-(5-fluoropyridin-2-yl)-1H-pyrazolo[4,3-c]pyridin-4-yl)benzyl)-5-fluoro-2-methoxybenzamide], for which the IC50 is more than 500 nM at EGFR, more than 500 nM at ITK and 50 to 500 nM at TEC.

As to `COc1ccc(F)cc1C(=O)NCc1ccc(-c2ncc(-c3cnn(C)c3)c3[nH]nc(N)c23)cc1` [Example 22, N-(4-(3-amino-7-(1-methyl-1H-pyrazol-4-yl)-1H-pyrazolo[4,3-c]pyridin-4-yl)benzyl)-5-fluoro-2-oxybenzamide], the IC50 on EGFR, at ITK and at TEC was more than 500 nM throughout.

In the case of `COc1ccc(F)cc1C(=O)NCc1ccc(-c2ncc(-c3ccn(C)n3)c3[nH]nc(N)c23)cc1` [Example 23, N-(4-(3-amino-7-(1-methyl-1H-pyrazol-3-yl)-1H-pyrazolo[4,3-c]pyridin-4-yl)benzyl)-5-fluoro-2-methoxybenzamide], the IC50 on EGFR is 50 to 500 nM; on ITK, more than 500 nM; on TEC it was 5 to 50 nM.

With `COc1ccc(F)cc1C(=O)NCc1ccc(-c2ncc(-c3ccc(C(F)(F)F)cn3)c3[nH]nc(N)c23)cc1` [Example 24, N-(4-(3-amino-7-(5-(trifluoromethyl)pyridin-2-yl)-1H-pyrazolo[4,3-c]pyridin-4-yl)benzyl)-5-fluoro-2-methoxybenzamide], the figures for the IC50 on EGFR, at ITK and at TEC were more than 500 nM, more than 500 nM and 50 to 500 nM, respectively.

On to `COc1ccc(F)cc1C(=O)NCc1ccc(-c2ncc(-c3ccn(CC(=O)N(C)C)n3)c3[nH]nc(N)c23)cc1` [Example 25, N-(4-(3-amino-7-(1-(2-(dimethylamino)-2-oxoethyl)-1H-pyrazol-3-yl)-1H-pyrazolo[4,3-c]pyridin-4-yl)benzyl)-5-fluoro-2-methoxybenzamide], for which the values for the IC50 on EGFR, on ITK and on TEC were 50 to 500 nM, more than 500 nM and 50 to 500 nM, respectively.

Regarding `CNC(=O)Cn1ccc(-c2cnc(-c3ccc(CNC(=O)c4cc(F)ccc4OC)cc3)c3c(N)n[nH]c23)n1` [Example 26, N-(4-(3-amino-7-(1-(2-(methylamino)-2-oxoethyl)-1H-pyrazol-3-yl)-1H-pyrazolo[4,3-c]pyridin-4-yl)benzyl)-5-fluoro-2-methoxybenzamide], the values for the IC50 at EGFR, at ITK and at TEC were 50 to 500 nM, more than 500 nM and 50 to 500 nM, respectively.

`COc1ccc(F)cc1C(=O)NCc1ccc(-c2ncc(-c3ccn(CC(F)(F)F)n3)c3[nH]nc(N)c23)cc1` [Example 28, N-(4-(3-amino-7-(1-(2,2,2-trifluoroethyl)-1H-pyrazol-3-yl)-1H-pyrazolo[4,3-c]pyridin-4-yl)benzyl)-5-fluoro-2-methoxybenzamide]: the IC50 is 5 to 50 nM at EGFR, 50 to 500 nM on ITK and 5 to 50 nM on TEC.

In the case of `COc1ccc(F)cc1C(=O)NCc1ccc(-c2ncc(-c3cn(C)cn3)c3[nH]nc(N)c23)cc1` [Example 30, N-(4-(3-amino-7-(1-methyl-1H-imidazol-4-yl)-1H-pyrazolo[4,3-c]pyridin-4-yl)benzyl)-5-fluoro-2-methoxybenzamide], the IC50 on EGFR was 50 to 500 nM; on ITK, more than 500 nM; at TEC, 50 to 500 nM.

Consider `COc1ccc(F)cc1C(=O)NCc1ccc(-c2ncc(-c3cc[nH]n3)c3[nH]nc(N)c23)cc1` [Example 31, N-(4-(3-amino-7-(1H-pyrazol-3-yl)-1H-pyrazolo[4,3-c]pyridin-4-yl)benzyl)-5-fluoro-2-methoxybenzamide], for which the IC50 at EGFR was 50 to 500 nM; at ITK, more than 500 nM; on TEC, 50 to 500 nM.

As to `COc1ccc(F)cc1C(=O)NCc1ccc(-c2ncc(-c3ccc(S(C)(=O)=O)cn3)c3[nH]nc(N)c23)cc1` [Example 35, N-(4-(3-amino-7-(5-(methylsulfonyl)pyridin-2-yl)-1H-pyrazolo[4,3-c]pyridin-4-yl)benzyl)-5-fluoro-2-methoxybenzamide], the IC50 at EGFR lay in the range of 50 to 500 nM; on ITK it was 50 to 500 nM; at TEC it was 5 to 50 nM.

For `COc1ccc(F)cc1C(=O)NCc1ccc(-c2ncc(-c3ncc(F)cn3)c3[nH]nc(N)c23)cc1` [Example 36, N-(4-(3-amino-7-(5-fluoropyrimidin-2-yl)-1H-pyrazolo[4,3-c]pyridin-4-yl)benzyl)-5-fluoro-2-methoxybenzamide], the IC50 was 50 to 500 nM on EGFR, more than 500 nM on ITK and 50 to 500 nM on TEC.

As to `COc1ccc(F)cc1C(=O)NCc1ccc(-c2ncc(-c3ccc(C)cn3)c3[nH]nc(N)c23)cc1` [Example 37, N-(4-(3-amino-7-(5-methylpyridin-2-yl)-1H-pyrazolo[4,3-c]pyridin-4-yl)benzyl)-5-fluoro-2-methoxybenzamide], the IC50 on EGFR was 50 to 500 nM; at ITK it was more than 500 nM; at TEC it was 5 to 50 nM.

For `COc1ccc(F)cc1C(=O)NCc1ccc(-c2ncc(-c3ccc(Cl)cn3)c3[nH]nc(N)c23)cc1` [Example 38, N-(4-(3-amino-7-(5-chloropyridin-2-yl)-1H-pyrazolo[4,3-c]pyridin-4-yl)benzyl)-5-fluoro-2-methoxybenzamide], the IC50 on EGFR was 50 to 500 nM; on ITK, more than 500 nM; at TEC, 5 to 50 nM.

Usually IC50 stands for the concentration that inhibits the measured activity by half.

(Values after EP4741392A1, “1H-PYRAZOLO[4,3-C]PYRIDINE COMPOUND, AND COMPOSITION THEREOF AND USE THEREOF” (Shenzhen TargetRx Co., Ltd., priority 2023, dated 2025).)
